The subject of assay [1] is Fusarium graminearum (Fgr). Type of assay: cell-based. Further details: relative uptake of SYTOX green: reference not given here.
In assay [2] the test system is Fusarium oxysporum f. sp. vasinfectum (Fov). The class given is cell-based. Further details: relative uptake of SYTOX green: reference not given here.

“HXL001: Class I permeabilizing defensin, mature protein SEQ ID NO:25 (RHCLSQSHRFKGLCMSSNNCANVCQTENFPGGECKAEGATRKCFCKKIC; HXL001 Zea Mays)”: in assay [1], the Permeability index was 0.9 and the “relative uptake of SYTOX green” value came to 300.

Turning to “HXL002: permeabilizing defensin, mature protein SEQ ID NO:26 (RDCLSQSHKFKGACLSSSNCAAVCRTENFPDGECHTHNFARKCFCKRAC; HXL002 Triticum aestivum)”, the Permeability index in assay [2] came to 0.9; in assay [1], 1.0. The “relative uptake of SYTOX green” value in assay [2] is on record as 260; in assay [1], 320.

“HXL004: Class I permeabilizing defensin, mature protein SEQ ID NO:27 (RTCESQSHRFKGLCFSRSNCASVCHTEGFNGGHCRGFRRRCFCTRHC; HXL004 Nicotiana benthamiana)”: in assay [1], the Permeability index is 1.6 and the “relative uptake of SYTOX green” value is 500.

As for “HXL007: permeabilizing defensin, mature protein SEQ ID NO:28 (RTCESLADTYRGPCFTDGSCDDHCKNKEHLISGRCRNDFRCWCTRNC; HXL007 Cyamopsis tetragonoloba)”, in assay [2], the Permeability index was determined as 1.2 and the “relative uptake of SYTOX green” value was found to be 350.

Regarding “HXL008: Class I permeabilizing defensin, mature protein SEQ ID NO:29 (KVCTKPSKFFKGLCGTDGACTTACRKEGLHSGYCQLKGFLNSVCVCRKHC; HXL008 Picramnia pentandra)”, in assay [2], the Permeability index was found to be 0.8 and the “relative uptake of SYTOX green” value is 225. Further, in assay [1], the Permeability index is reported as 0.9 and the “relative uptake of SYTOX green” value is given as 300.

“HXL013: Class I permeabilizing defensin, mature protein SEQ ID NO:30 (KDCLTRRHGFQGRCLFDRQCAHVCRSDGFIGGQCRGPLRKCFCSRPC; HXL013 Glycine max)”: in assay [1], the Permeability index is 1.4 and the “relative uptake of SYTOX green” value stood at 450.

Regarding “HXP4: synthetic (artificial) defensin variant, SEQ ID NO:8 (RECKTESHRFKGPCITKPPCRKACISEKFTDGHCSKILRRCLCTKPC; HXP4 protein)”, in assay [2], the Permeability index worked out at 0.7 and the “relative uptake of SYTOX green” value was 220. Besides, in assay [1], the Permeability index turned out to be 1.3 and the “relative uptake of SYTOX green” value is on record as 400.

As to Hordothionin [reference compound], in assay [1], the Permeability index came to 0.4 and the “relative uptake of SYTOX green” value is listed as 120.

Take “NaD1: Class II Solanaceous defensin from flowers of ornamental tobacco Nicotiana alata (Q8GTM0) (RECKTESNTFPGICITKPPCRKACISEKFTDGHCSKILRRCLCTKPC; UniProt Q8GTM0 26-72, looked up)”: in assay [2], the Permeability index is given as 1.0 and the “relative uptake of SYTOX green” value worked out at 300. In addition, in assay [1], the Permeability index worked out at 1.0 and the “relative uptake of SYTOX green” value is reported as 320.

Turning to “RsAFP2: defensin compared in the Fgr permeabilization assay (QKLCQRPSGTWSGVCGNNNACKNQCIRLEKARHGSCNYVFPAHKCICYFPC; UniProt P30230 30-80, looked up) [reference compound]”, in assay [1], the Permeability index is recorded as 0.3 and the “relative uptake of SYTOX green” value turned out to be 100.

(Values after patent publication US20190327965A1, “AGENTS AND METHODS FOR TREATMENT OF PATHOGENS” (Hexima Limited, priority 2014, published 2019).)
